Key:
Assay in all cases: AlphaScreen Assay
Ephrin type-B receptor 4 = target: T1, Ephrin type-B receptor 4 (Homo sapiens, UniProt P54760)
T1 sequence (P54760 whole entry): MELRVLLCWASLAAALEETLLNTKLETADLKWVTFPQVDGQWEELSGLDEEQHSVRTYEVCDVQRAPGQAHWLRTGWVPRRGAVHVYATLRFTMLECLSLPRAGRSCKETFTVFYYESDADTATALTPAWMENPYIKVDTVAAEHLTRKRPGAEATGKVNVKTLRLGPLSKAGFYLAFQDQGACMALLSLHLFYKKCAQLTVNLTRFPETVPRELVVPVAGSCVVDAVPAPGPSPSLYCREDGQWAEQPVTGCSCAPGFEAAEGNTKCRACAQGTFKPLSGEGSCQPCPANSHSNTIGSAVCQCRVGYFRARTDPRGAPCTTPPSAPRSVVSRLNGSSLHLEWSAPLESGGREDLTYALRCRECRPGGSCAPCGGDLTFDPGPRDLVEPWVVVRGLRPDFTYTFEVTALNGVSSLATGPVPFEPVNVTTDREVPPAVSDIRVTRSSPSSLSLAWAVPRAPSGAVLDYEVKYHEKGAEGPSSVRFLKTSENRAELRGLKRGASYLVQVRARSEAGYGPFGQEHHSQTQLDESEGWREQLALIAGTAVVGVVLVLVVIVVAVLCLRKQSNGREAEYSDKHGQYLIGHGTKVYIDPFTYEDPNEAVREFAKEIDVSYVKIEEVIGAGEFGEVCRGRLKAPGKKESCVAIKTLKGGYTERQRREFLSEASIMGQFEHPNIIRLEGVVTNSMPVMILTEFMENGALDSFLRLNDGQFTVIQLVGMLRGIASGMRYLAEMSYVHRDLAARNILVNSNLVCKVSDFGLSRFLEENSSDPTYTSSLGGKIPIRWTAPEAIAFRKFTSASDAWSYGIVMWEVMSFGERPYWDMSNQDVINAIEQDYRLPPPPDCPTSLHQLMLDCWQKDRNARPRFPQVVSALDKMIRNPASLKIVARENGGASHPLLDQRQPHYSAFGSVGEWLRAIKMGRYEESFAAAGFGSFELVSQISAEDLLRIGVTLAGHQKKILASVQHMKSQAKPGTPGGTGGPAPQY
Experimental: (§1) In AlphaScreen, when the donor and acceptor beads are close in proximity, a series of photochemical events will give rise to a fluorescent signal upon light activation. Here we use biotinylated poly-(Glu, Tyr) 4:1 as the kinase substrate, streptavidin-coated donor beads and anti-phosphortyrosine antibody PY100-coated acceptor beads. […] Compounds, ATP, biotinylated poly-(Glu, Tyr) and kinases are mixed in a volume of 20 μL for 1 hr at ambient temperature using Greiner 384-well white clear bottom medium binding plates. Then 10 uL solution containing 15-30 mg/mL AlphaScreen beads, 75 mM Hepes, pH 7.4, 300 mM NaCl, 120 mM EDTA, 0.3% BSA and 0.03% Tween-20 is added to each well. After 2-16 hr incubation of the beads, plates are read in a Perkin Elmer AlphaQuest reader (available from PerkinElmer Life and Analytical Sciences, Inc., of Boston Mass.).

[1] = target: Receptor tyrosine-protein kinase erbB-2 (Homo sapiens, UniProt P04626)
Receptor tyrosine-protein kinase erbB-2, sequence (P04626 whole entry): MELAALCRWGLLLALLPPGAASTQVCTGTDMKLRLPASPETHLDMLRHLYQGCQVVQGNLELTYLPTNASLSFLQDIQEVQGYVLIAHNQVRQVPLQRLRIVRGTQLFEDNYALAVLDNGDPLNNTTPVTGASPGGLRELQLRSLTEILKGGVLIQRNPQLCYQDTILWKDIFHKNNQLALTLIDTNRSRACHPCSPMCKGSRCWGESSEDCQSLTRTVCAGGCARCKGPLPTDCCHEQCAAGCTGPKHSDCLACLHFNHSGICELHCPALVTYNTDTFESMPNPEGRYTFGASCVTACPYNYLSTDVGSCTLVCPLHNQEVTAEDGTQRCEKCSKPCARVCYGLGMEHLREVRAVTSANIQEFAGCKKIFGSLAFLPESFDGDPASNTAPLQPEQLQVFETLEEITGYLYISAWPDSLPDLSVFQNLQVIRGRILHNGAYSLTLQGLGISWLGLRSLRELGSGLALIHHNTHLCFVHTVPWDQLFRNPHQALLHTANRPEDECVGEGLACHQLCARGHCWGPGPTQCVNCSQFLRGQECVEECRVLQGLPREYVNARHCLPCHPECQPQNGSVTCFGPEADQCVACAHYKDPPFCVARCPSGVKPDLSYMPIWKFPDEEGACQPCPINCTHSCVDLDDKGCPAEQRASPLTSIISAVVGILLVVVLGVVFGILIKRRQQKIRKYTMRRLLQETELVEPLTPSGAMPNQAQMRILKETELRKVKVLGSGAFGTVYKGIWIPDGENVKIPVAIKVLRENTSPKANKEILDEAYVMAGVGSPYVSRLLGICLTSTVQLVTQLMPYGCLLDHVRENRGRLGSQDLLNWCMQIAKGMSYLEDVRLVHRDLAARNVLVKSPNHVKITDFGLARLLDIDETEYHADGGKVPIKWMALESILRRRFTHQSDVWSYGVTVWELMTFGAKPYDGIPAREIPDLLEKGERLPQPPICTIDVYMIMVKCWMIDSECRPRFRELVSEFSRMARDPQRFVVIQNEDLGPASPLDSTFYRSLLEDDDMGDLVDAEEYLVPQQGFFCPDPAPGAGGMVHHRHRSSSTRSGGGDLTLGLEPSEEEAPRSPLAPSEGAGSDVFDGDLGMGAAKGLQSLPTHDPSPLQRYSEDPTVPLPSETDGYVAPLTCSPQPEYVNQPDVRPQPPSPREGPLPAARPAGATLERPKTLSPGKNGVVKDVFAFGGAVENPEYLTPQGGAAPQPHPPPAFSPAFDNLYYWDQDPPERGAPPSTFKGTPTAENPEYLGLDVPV
Experimental: as §1

[2] = target: Vascular endothelial growth factor receptor 1 (Homo sapiens, UniProt P17948)
Vascular endothelial growth factor receptor 1, sequence (P17948 whole entry): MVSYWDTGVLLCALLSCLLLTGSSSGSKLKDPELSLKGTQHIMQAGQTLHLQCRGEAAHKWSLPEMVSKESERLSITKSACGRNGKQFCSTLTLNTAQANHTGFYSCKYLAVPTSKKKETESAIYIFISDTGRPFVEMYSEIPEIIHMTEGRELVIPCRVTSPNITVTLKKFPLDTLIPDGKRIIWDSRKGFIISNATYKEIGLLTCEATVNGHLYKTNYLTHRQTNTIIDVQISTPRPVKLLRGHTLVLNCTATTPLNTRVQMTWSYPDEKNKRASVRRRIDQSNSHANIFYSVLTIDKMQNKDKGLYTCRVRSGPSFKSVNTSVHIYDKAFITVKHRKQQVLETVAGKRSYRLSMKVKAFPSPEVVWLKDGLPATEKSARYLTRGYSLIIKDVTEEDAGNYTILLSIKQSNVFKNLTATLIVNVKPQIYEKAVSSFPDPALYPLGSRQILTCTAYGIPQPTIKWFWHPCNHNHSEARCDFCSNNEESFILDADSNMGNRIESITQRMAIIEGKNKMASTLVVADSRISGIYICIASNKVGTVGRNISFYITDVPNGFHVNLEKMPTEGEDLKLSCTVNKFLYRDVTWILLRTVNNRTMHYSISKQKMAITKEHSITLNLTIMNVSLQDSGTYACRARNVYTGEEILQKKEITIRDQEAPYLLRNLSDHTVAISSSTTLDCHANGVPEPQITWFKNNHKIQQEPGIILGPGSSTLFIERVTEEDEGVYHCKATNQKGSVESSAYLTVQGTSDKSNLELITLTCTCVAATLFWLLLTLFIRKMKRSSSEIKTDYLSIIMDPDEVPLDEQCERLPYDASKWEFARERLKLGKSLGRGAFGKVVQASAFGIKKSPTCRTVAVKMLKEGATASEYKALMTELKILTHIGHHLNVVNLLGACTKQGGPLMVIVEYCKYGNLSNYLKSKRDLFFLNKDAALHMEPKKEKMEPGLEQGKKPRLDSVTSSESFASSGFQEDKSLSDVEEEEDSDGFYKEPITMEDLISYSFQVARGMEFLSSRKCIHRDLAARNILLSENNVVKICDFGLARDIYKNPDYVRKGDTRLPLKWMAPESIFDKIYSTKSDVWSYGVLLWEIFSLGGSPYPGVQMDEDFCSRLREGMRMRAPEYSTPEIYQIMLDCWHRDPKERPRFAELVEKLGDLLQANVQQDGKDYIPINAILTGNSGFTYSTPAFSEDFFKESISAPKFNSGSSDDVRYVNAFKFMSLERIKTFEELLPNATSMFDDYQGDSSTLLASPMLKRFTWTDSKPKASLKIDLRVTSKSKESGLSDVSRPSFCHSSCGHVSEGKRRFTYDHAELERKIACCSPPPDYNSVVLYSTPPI
Experimental: as §1

Ephrin type-A receptor 2 = Ephrin type-A receptor 2 (Homo sapiens, UniProt P29317)
Ephrin type-A receptor 2, sequence (P29317 whole entry): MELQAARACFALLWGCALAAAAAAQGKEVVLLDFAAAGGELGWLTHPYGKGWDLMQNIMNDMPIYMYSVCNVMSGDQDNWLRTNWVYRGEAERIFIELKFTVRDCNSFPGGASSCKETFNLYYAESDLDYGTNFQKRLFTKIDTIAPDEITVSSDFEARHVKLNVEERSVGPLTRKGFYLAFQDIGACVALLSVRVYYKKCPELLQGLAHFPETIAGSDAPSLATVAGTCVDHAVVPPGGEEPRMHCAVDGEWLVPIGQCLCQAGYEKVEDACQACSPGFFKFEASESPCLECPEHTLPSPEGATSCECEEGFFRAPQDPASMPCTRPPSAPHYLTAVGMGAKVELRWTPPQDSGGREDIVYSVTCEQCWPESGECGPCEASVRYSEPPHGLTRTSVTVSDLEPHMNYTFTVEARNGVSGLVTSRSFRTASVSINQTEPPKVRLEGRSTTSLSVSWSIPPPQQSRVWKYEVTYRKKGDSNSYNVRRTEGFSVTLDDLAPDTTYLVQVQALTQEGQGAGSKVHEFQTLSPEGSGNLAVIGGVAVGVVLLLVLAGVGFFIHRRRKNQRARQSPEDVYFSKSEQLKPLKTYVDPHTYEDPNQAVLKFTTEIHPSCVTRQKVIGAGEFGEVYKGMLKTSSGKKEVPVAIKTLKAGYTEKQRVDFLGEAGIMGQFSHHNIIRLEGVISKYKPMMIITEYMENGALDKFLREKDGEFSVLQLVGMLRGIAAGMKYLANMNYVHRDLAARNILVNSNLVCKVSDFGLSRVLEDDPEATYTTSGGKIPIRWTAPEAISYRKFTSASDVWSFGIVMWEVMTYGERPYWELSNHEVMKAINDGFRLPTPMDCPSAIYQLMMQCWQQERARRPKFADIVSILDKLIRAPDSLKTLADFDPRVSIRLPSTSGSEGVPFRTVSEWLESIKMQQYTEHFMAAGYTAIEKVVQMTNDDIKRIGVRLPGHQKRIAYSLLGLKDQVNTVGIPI
Experimental: as §1

[3] = target: Vascular endothelial growth factor receptor 2 (Homo sapiens, UniProt P35968)
Vascular endothelial growth factor receptor 2, sequence (P35968 whole entry): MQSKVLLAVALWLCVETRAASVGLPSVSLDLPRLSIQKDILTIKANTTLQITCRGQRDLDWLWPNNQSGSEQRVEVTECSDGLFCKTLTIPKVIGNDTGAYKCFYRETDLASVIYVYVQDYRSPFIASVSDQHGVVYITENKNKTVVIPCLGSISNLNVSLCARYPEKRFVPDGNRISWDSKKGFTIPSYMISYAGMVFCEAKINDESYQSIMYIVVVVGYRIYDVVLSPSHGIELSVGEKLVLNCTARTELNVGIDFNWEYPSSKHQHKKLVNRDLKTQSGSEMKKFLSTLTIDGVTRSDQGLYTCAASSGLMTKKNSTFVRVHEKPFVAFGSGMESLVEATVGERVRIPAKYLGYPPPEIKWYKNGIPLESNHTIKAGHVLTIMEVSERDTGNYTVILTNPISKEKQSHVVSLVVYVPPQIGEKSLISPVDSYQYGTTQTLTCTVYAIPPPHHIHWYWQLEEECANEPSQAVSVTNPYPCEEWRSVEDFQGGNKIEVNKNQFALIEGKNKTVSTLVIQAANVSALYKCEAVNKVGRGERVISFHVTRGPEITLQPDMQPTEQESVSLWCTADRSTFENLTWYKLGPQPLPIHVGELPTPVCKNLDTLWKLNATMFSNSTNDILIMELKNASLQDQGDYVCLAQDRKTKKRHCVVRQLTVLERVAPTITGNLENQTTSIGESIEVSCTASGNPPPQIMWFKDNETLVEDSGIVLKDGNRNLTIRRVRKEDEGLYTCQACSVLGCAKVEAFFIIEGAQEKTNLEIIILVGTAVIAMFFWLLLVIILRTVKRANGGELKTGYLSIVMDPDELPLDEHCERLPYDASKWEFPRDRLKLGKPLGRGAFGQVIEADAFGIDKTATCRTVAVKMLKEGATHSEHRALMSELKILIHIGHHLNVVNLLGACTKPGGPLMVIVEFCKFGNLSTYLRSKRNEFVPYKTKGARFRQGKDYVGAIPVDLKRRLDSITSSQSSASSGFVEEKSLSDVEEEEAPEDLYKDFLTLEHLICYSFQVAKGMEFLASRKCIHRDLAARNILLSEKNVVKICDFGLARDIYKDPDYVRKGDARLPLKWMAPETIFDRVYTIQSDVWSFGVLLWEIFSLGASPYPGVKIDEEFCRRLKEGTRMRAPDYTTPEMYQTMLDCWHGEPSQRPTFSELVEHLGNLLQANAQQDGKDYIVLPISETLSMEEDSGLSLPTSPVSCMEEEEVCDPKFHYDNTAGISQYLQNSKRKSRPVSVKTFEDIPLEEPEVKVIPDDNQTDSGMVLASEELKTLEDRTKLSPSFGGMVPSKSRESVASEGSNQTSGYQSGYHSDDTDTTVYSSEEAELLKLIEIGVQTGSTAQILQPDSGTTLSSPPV
Experimental: as §1

SMILES | IC50 (Ephrin type-B receptor 4) | IC50 [1] | IC50 [2] | IC50 (Ephrin type-A receptor 2) | IC50 [3]
COc1cc2c(Nc3ccc(Cl)c(Cl)c3F)ncnc2cc1OC[C@@H]1C[C@@H]2CN(CC(C)C)C[C@@H]2C1 [US9796704, Entry 8] | in the range around 525 nM | in the range around 10500 nM | in the range around 10500 nM |  | 
COc1cc2c(Nc3ccc(F)c(Cl)c3F)ncnc2cc1OC[C@H]1C[C@@H]2CN(C)C[C@@H]2C1 [US9796704, Entry 11] |  | in the range around 525 nM | in the range around 525 nM |  | 
COc1cc2c(Nc3cc(Cl)c(Cl)cc3F)ncnc2cc1OC[C@H]1C[C@@H]2CN(C)C[C@@H]2C1 [US9796704, Entry 12] |  | < 50 nM | < 50 nM |  | 
COc1cc2c(Nc3cc(Cl)c(Br)cc3F)ncnc2cc1OC[C@H]1C[C@@H]2CN(C)C[C@@H]2C1 [US9796704, Entry 13] |  | < 50 nM | < 50 nM |  | 
COc1cc2c(Nc3ccc(Br)c(Cl)c3Cl)ncnc2cc1OC[C@H]1C[C@@H]2CN(C)C[C@@H]2C1 [US9796704, Entry 14] |  | in the range around 525 nM | in the range around 525 nM |  | 
COc1cc2c(Nc3ccc(Cl)c(Cl)c3)ncnc2cc1OC[C@H]1C[C@@H]2CN(C)C[C@@H]2C1 [US9796704, Entry 15] |  | < 50 nM | in the range around 525 nM |  | 
CCN1C[C@H]2C[C@@H](COc3cc4ncnc(Nc5ccc(Br)c(Cl)c5F)c4cc3OC)C[C@H]2C1 [US9796704, Entry 16] |  | in the range around 525 nM | in the range around 525 nM | in the range around 525 nM | in the range around 525 nM
COc1cc2c(Nc3ccc(Br)c(Cl)c3F)ncnc2cc1OC[C@@H]1C[C@@H]2CN(CC(C)C)C[C@@H]2C1 [US9796704, Entry 17] |  | in the range around 10500 nM | in the range around 525 nM | in the range around 525 nM | in the range around 525 nM
COc1cc2c(Nc3ccc(Br)c(Cl)c3Cl)ncnc2cc1OC[C@H]1CN2CCOCC2CO1 (stereo partly drawn) [US9796704, Entry 18] | < 50 nM | in the range around 525 nM | in the range around 525 nM |  | 
COc1cc2c(Nc3ccc(Cl)c(Cl)c3F)ncnc2cc1OC[C@@H]1CN2CCOCC2CO1 (stereo partly drawn) [US9796704, Entry 22] | in the range around 10500 nM | in the range around 525 nM | in the range around 525 nM | in the range around 10500 nM | in the range around 10500 nM
COc1cc2c(Nc3ccc(Br)c(Cl)c3F)ncnc2cc1OC[C@@H]1CN2CCOCC2CO1 (stereo partly drawn) [US9796704, Entry 23] | in the range around 10500 nM |  | in the range around 525 nM | in the range around 10500 nM | in the range around 10500 nM
COc1cc2c(Nc3ccc(Br)c(Cl)c3Cl)ncnc2cc1OC[C@@H]1CN2CCOCC2CO1 (stereo partly drawn) [US9796704, Entry 27] |  | in the range around 525 nM | < 50 nM |  | 
COc1cc2c(Nc3cc(Cl)c(Br)cc3F)ncnc2cc1OC[C@H]1CN2CCC[C@@H]2CO1 [US9796704, Entry 32] | in the range around 525 nM |  | in the range around 10500 nM | in the range around 10500 nM | in the range around 525 nM
COc1cc2c(Nc3ccc(Cl)c(Cl)c3F)ncnc2cc1OC[C@@H]1CN2CCC[C@H]2CO1 [US9796704, Entry 36] | in the range around 10500 nM | in the range around 10500 nM | in the range around 10500 nM | in the range around 10500 nM | 
COc1cc2c(Nc3ccc(F)c(Cl)c3F)ncnc2cc1OC[C@@H]1CN2CCC[C@H]2CO1 [US9796704, Entry 38] | in the range around 525 nM | < 50 nM | in the range around 10500 nM | in the range around 525 nM | < 50 nM
COc1cc2c(Nc3cc(Cl)c(Br)cc3F)ncnc2cc1OCC1CO[C@@H]2[C@@H](OC)CO[C@H]12 (stereo partly drawn) [US9796704, Entry 41] |  | in the range around 525 nM | in the range around 525 nM |  | 
COc1cc2c(Nc3ccc(Br)c(Cl)c3F)ncnc2cc1OCC1CO[C@@H]2[C@@H](OC)CO[C@H]12 (stereo partly drawn) [US9796704, Entry 44] |  | in the range around 10500 nM | in the range around 525 nM |  | 
COc1cc2c(Nc3ccc(Br)c(Cl)c3F)ncnc2cc1OC[C@@H]1CN2CCC[C@H]2C(=O)N1 [US9796704, Entry 53] | in the range around 525 nM | in the range around 525 nM | in the range around 10500 nM | in the range around 10500 nM | 
COc1cc2c(Nc3ccc(Cl)c(Cl)c3F)ncnc2cc1OC[C@H]1CN2CCC[C@@H]2C(=O)N1C [US9796704, Entry 54] | in the range around 525 nM |  | in the range around 10500 nM | in the range around 10500 nM | in the range around 10500 nM
COc1cc2c(Nc3ccc(Cl)c(Cl)c3)ncnc2cc1OCCNC1CC2CCC(C1)N2C (stereo not drawn) [US9796704, Entry 55] |  | in the range around 525 nM | in the range around 10500 nM | in the range around 10500 nM | 
COc1cc2c(Nc3ccc(Cl)c(Cl)c3)ncnc2cc1OCCC1CC2CCC(C1)N2C (stereo not drawn) [US9796704, Entry 57] | in the range around 525 nM | in the range around 525 nM | in the range around 10500 nM |  | 
COc1cc2c(Nc3ccc(Cl)c(Cl)c3)ncnc2cc1OC1CC2CCC(C1)N2C (stereo not drawn) [US9796704, Entry 60] |  | in the range around 525 nM | in the range around 525 nM | in the range around 10500 nM | in the range around 10500 nM
COc1cc2c(Nc3ccc(Br)c(Cl)c3Cl)ncnc2cc1O[C@H]1CO[C@H]2[C@@H]1OC[C@@H]2OC [US9796704, Entry 66] |  | in the range around 10500 nM | > 20000 nM |  | > 20000 nM

Source: BindingDB's records for patent US9796704 (SYMPHONY EVOLUTION, INC., 2017)
